Key:
[1] = Inhibition of Hepatitis C virus NS5B RNA dependent RNA polymerase; design: species or system Hepacivirus hominis
Enterovirus = assay: Antiviral activity against Enterovirus infected in human H1-HeLa cells incubated for 3 days by crystal violet staining based plaque counting analysis; format: functional, organism-based; conditions: 72 h
rhinovirus B14 = assay: Antiviral activity against human Rhinovirus 14 infected in H1-HeLa cells incubated for 3 days by crystal-violet staining based analysis; format: functional, organism-based; conditions: Rhinovirus B, 72 h
[2] = Elimination half life in human; format: ADME; conditions: read-out: beta t1/2 (converted)
clinical = conditions: human, in vivo, iv, 5 mg/kg
Description: Elimination half life in human at 5 mg/kg, iv

[3] = Inhibition of Influenza A virus RNA-dependent RNA polymerase
Influenza A virus = assay: Anti-influenza activity against Influenza A virus infected in MDCK cells assessed as reduction in virus-induced cytopathic effect incubated for 48 hrs by CCK-8 assay; format: functional, organism-based
[4] = target: Dihydroorotate dehydrogenase (quinone), mitochondrial (Homo sapiens, UniProt Q02127); assay: Inhibition of DHOH (unknown origin)
Chain of Dihydroorotate dehydrogenase (quinone), mitochondrial (Q02127 whole entry): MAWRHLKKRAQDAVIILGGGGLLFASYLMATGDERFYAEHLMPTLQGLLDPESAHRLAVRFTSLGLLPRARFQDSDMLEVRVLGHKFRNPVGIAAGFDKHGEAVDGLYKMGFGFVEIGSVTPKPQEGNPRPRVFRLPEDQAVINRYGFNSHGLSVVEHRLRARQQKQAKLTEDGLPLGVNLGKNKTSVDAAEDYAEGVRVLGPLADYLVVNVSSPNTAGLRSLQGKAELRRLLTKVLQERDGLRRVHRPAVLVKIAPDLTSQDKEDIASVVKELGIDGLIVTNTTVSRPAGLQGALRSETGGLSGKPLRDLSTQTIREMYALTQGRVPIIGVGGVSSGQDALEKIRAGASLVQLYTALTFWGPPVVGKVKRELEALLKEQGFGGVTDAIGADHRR

Human alphaherpesvirus 1 = assay: Antiviral activity against HSV 1 infected in African green monkey Vero cells assessed as reduction in plaque formation incubated for 36 hrs by crystal violet staining based assay; format: functional, organism-based; conditions: Human alphaherpesvirus 1, Vero

C[C@@]1(O)[C@H](O)[C@@H](CO)O[C@H]1n1ccc2c(N)ncnc21 [BETA-2'-C-METHYL-7-DEAZA-ADENOSINE]
IC50 [1]: 5 µM

COc1ccc(OCCCCCCn2ccnc2)c(Cl)c1
EC50 (Enterovirus): 10 µM | EC50 (rhinovirus B14): 10 µM

N#C[C@@]1(c2ccc3c(N)ncnn23)O[C@H](COP(=O)(O)OP(=O)(O)OP(=O)(O)O)[C@@H](O)[C@H]1O [RDV-TP]
half-life [2]: 1600 min

CCC(CC)COC(=O)[C@H](C)N[P@](=O)(OC[C@H]1O[C@@](C#N)(c2ccc3c(N)ncnn23)[C@H](O)[C@@H]1O)Oc1ccccc1
half-life (clinical): 28.8 min

NC(=O)c1nc(F)cn([C@@H]2O[C@H](COP(=O)(O)OP(=O)(O)OP(=O)(O)O)[C@@H](O)[C@H]2O)c1=O
IC50 [3]: 341 nM

O=[N+]([O-])c1ccc(CNc2ccc3ncsc3c2)cc1
IC50 (Influenza A virus): 3.36 µM

CN(/N=C/c1ccccc1C(=O)O)c1nc(-c2ccccc2Cl)cs1
IC50 [4]: 7.5 nM

C=CCNC1=C2C[C@@H](C)C[C@H](OC)[C@H](O)[C@@H](C)/C=C(\C)[C@H](OC(N)=O)[C@@H](OC)/C=C/C=C(\C)C(=O)NC(=CC1=O)C2=O
IC50 (Human alphaherpesvirus 1): 7.8 nM
